Laboratory results published in ChEMBL document CHEMBL1201862, “PubChem BioAssay data set” (2004).
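The compound was tested at five concentrations on cells cultured in 96-well plates, with a 48-hour exposure period. Here, GI50 denotes the concentration required for 50% inhibition of growth.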 Active and inactive are the calls of the source. Rule as the data show it: active = GI50 up to about 1.1 µM and inactive = higher.

Legend:
Assay in all cases: inhibition of tumour cell growth, NCI panel, 48 h
786-0 = system: 786-0
A498 = system: A498
A549 = system: A549
ACHN = system: ACHN
BT-549 = system: BT-549
CAKI-1 = system: CAKI-1
CCRF-CEM = system: CCRF-CEM
COLO 205 = system: COLO 205
DU-145 = system: DU-145
EKVX = system: EKVX
HCC 2998 = system: HCC 2998
HCT-116 = system: HCT-116
HCT-15 = system: HCT-15
HL-60 = system: HL-60
HOP-62 = system: HOP-62
HOP-92 = system: HOP-92
HT-29 = system: HT-29
Hs-578T = system: Hs-578T
IGROV-1 = system: IGROV-1
K562 = system: K562
KM12 = system: KM12
LOX IMVI = system: LOX IMVI
M14 = system: M14
MCF7 = system: MCF7
MDA-MB-231 = system: MDA-MB-231
MDA-MB-435 = system: MDA-MB-435
MOLT-4 = system: MOLT-4
Malme-3M = system: Malme-3M
NCI-H226 = system: NCI-H226
NCI-H23 = system: NCI-H23
NCI-H460 = system: NCI-H460
NCI-H522 = system: NCI-H522
NCI/ADR-RES = system: NCI/ADR-RES
OVCAR-3 = system: OVCAR-3
OVCAR-4 = system: OVCAR-4
OVCAR-5 = system: OVCAR-5
OVCAR-8 = system: OVCAR-8
PC-3 = system: PC-3
RPMI-8226 = system: RPMI-8226
RXF 393 = system: RXF 393
SF-268 = system: SF-268
SF-295 = system: SF-295
SF-539 = system: SF-539
SK-MEL-28 = system: SK-MEL-28
SK-MEL-2 = system: SK-MEL-2
SK-MEL-5 = system: SK-MEL-5
SK-OV-3 = system: SK-OV-3
SN12C = system: SN12C
SNB-19 = system: SNB-19
SNB-75 = system: SNB-75
SR = system: SR
SW-620 = system: SW-620
T47D = system: T47D
TK-10 = system: TK-10
U-251 = system: U-251
UACC-257 = system: UACC-257
UACC-62 = system: UACC-62
UO-31 = system: UO-31

For C[N+](C)=C/C=C(\Cl)c1ccc2ccccc2c1, the GI50 (786-0) was 13.1 µM (inactive), the GI50 (A498) was > 63 µM (inactive) and the GI50 (A549) was > 75.7 µM (inactive). For the same molecule, the GI50 (ACHN) was 14 µM (inactive), the GI50 (BT-549) was 17.7 µM (inactive) and the GI50 (CAKI-1) was 11.9 µM (inactive). For the same molecule, the GI50 (CCRF-CEM) was 1.66 µM (inactive), the GI50 (COLO 205) was 19.2 µM (inactive) and the GI50 (DU-145) was 14.9 µM (inactive). The GI50 (EKVX) was 24.5 µM (inactive), the GI50 (HCC 2998) was 6.37 µM (inactive) and the GI50 (HCT-116) was 2.76 µM (inactive). For the same molecule, the GI50 (HCT-15) was 2.62 µM, the GI50 (HL-60) was 6.52 µM (inactive) and the GI50 (HOP-62) was 17.8 µM (inactive). For the same molecule, the GI50 (HOP-92) was 21 µM (inactive), the GI50 (HT-29) was 7.64 µM (inactive) and the GI50 (Hs-578T) was 32.4 µM (inactive). For the same molecule, the GI50 (IGROV-1) was 16.5 µM (inactive), the GI50 (K562) was 5.04 µM (inactive) and the GI50 (KM12) was 15 µM (inactive). The GI50 (LOX IMVI) was 4.33 µM (inactive), the GI50 (M14) was 6.62 µM (inactive) and the GI50 (MCF7) was 19 µM (inactive). The GI50 (MDA-MB-231) was 14.6 µM (inactive), the GI50 (MDA-MB-435) was 16.7 µM (inactive) and the GI50 (MOLT-4) was 1.54 µM (inactive). For the same molecule, the GI50 (Malme-3M) was 11.8 µM (inactive), the GI50 (NCI-H226) was 17.3 µM (inactive) and the GI50 (NCI-H23) was 5.98 µM (inactive). The GI50 (NCI-H460) was 23.3 µM (inactive), the GI50 (NCI-H522) was 21.4 µM (inactive) and the GI50 (NCI/ADR-RES) was 6.87 µM (inactive). For the same molecule, the GI50 (OVCAR-3) was 6.24 µM (inactive), the GI50 (OVCAR-4) was 3.82 µM (inactive) and the GI50 (OVCAR-5) was 19.9 µM (inactive). For the same molecule, the GI50 (OVCAR-8) was 9.66 µM (inactive), the GI50 (PC-3) was 19.8 µM (inactive) and the GI50 (RPMI-8226) was 2.89 µM (inactive). The GI50 (RXF 393) was 16.5 µM (inactive), the GI50 (SF-268) was 22.9 µM (inactive) and the GI50 (SF-295) was 16.9 µM (inactive). The GI50 (SF-539) was 25.1 µM (inactive), the GI50 (SK-MEL-28) was 3.61 µM (inactive) and the GI50 (SK-MEL-2) was 25.2 µM (inactive). For the same molecule, the GI50 (SK-MEL-5) was 18.1 µM (inactive), the GI50 (SK-OV-3) was 18 µM (inactive) and the GI50 (SN12C) was 19.1 µM (inactive). The GI50 (SNB-19) was 21.7 µM (inactive), the GI50 (SNB-75) was 21.5 µM (inactive) and the GI50 (SR) was 1.39 µM (inactive). The GI50 (SW-620) was 4.29 µM (inactive), the GI50 (T47D) was 12.4 µM (inactive) and the GI50 (TK-10) was 16.3 µM (inactive). For the same molecule, the GI50 (U-251) was 11.4 µM (inactive), the GI50 (UACC-257) was 12.2 µM (inactive) and the GI50 (UACC-62) was 15.1 µM (inactive). For the same molecule, the GI50 (UO-31) was 17 µM (inactive).
